Source: PubChem BioAssay AID248 (DTP/NCI, 2004)
Where “and” joins values, the source holds several entries; their conditions need not be identical. Equal values may be shown once. Inconclusive results and toxic doses are left out. No stated cut-off is given here; in the data, active means T/C of 150% or more; inactive means T/C below 125%.

System: L1210 leukemia ip in BDF1 mice, survival T/C
Experiment: NCI In Vivo Anticancer Drug Screen. Data for tumor model L1210 Leukemia (intraperitoneal) in B6D2F1 (BDF1) mice
Conditions: endpoint: mean survival time, higher = longer survival
Procedure, shortened: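 Read-out is survival time, reported as the treated-group measurement over the vehicle-control measurement.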

[1] = dose: 100.0 mg/kg/injection, schedule: Q01DX009 (ip), vehicle: saline with Tween-80
[2] = dose: 200.0 mg/kg/injection, schedule: Q01DX009 (ip), vehicle: saline with Tween-80
[3] = dose: 400.0 mg/kg/injection, schedule: Q01DX009 (ip), vehicle: saline with Tween-80
[4] = dose: 100.0 mg/kg/injection, schedule: Q04DX003 (ip), vehicle: saline with Tween-80
[5] = dose: 200.0 mg/kg/injection, schedule: Q04DX003 (ip), vehicle: saline with Tween-80
[6] = dose: 400.0 mg/kg/injection, schedule: Q04DX003 (ip), vehicle: saline with Tween-80
[7] = dose: 100.0 mg/kg/injection, schedule: Q01DX009 (ip), vehicle: saline
[8] = dose: 200.0 mg/kg/injection, schedule: Q01DX009 (ip), vehicle: saline
[9] = dose: 100.0 mg/kg/injection, schedule: Q01DX001 (ip), vehicle: saline
[10] = dose: 100.0 mg/kg/injection, schedule: Q04DX002 (ip), vehicle: saline with Tween-80
[11] = dose: 200.0 mg/kg/injection, schedule: Q04DX002 (ip), vehicle: saline with Tween-80
[12] = dose: 200.0 mg/kg/injection, schedule: Q01DX001 (ip), vehicle: saline
[13] = dose: 100.0 mg/kg/injection, schedule: Q01DX009 (ip), vehicle: Klucel (hydroxypropylcellulose) (HPC)

Measured: T/C

O=C(Nc1ccc(Cl)c(Cl)c1)Nc1ccc(Oc2ccc(Cl)cc2Cl)cc1S(=O)(=O)O
inactive: dose: 100.0 mg/kg/injection, schedule: Q04DX003 (ip), vehicle: alcohol 100 % of control | dose: 200.0 mg/kg/injection, schedule: Q04DX003 (ip), vehicle: alcohol 103 % of control

CC1=CSCC(=O)N1
inactive: [1] 97 % of control | [2] 101 % of control | [3] 105 % of control

[Ni+2].[SH2+]C([SH2+])=Nc1ccccc1.[SH2+]C([SH2+])=Nc1ccccc1.c1ccc(C[P+](c2ccccc2)(c2ccccc2)c2ccccc2)cc1
inactive: dose: 6.0 mg/kg/injection, schedule: Q01DX009 (ip), vehicle: saline 94 % of control

Cc1nc(N)c(=O)[nH]c1C
inactive: dose: 100.0 mg/kg/injection, schedule: Q01DX001 (ip), vehicle: Klucel (hydroxypropylcellulose) (HPC) 104 % of control | [1] 90 % of control | [4] 100 % of control | dose: 200.0 mg/kg/injection, schedule: Q01DX001 (ip), vehicle: Klucel (hydroxypropylcellulose) (HPC) 97 % of control | [2] 112 % of control | [5] 105 % of control | dose: 400.0 mg/kg/injection, schedule: Q01DX001 (ip), vehicle: Klucel (hydroxypropylcellulose) (HPC) 97 % of control | [3] 104 % of control | [6] 114 % of control

C#CCN(C)Cc1ccccc1
inactive: dose: 25.0 mg/kg/injection, schedule: Q01DX009 (ip), vehicle: saline 94 % of control | dose: 50.0 mg/kg/injection, schedule: Q01DX009 (ip), vehicle: saline 89 % of control | [7] 87 % of control | dose: 100.0 mg/kg/injection, schedule: Q04DX003 (ip), vehicle: saline 103 % of control | [8] 98 % of control | dose: 200.0 mg/kg/injection, schedule: Q04DX003 (ip), vehicle: saline 103 % of control | dose: 400.0 mg/kg/injection, schedule: Q04DX003 (ip), vehicle: saline 97 % of control

CCCCCCC(=O)CCCCCCCCCCCCC(=O)OC
inactive: [3] 88 % of control

O=CNC1CCCCC1c1ccc(C2CCCCC2NC=O)cc1 (centres undefined)
inactive: [9] 97 % of control

c1ccc(COCc2ccc(C3N(c4ccccc4)CCN3c3ccccc3)o2)cc1
inactive: [10] 96 % of control | [11] 96 % of control | dose: 400.0 mg/kg/injection, schedule: Q04DX002 (ip), vehicle: saline with Tween-80 104 % of control

CN1CCN(C2CCCc3ccccc3C2O)CC1 (centres undefined)
inactive: dose: 5.0 mg/kg/injection, schedule: Q01DX001 (ip), vehicle: saline 109 % of control | dose: 10.0 mg/kg/injection, schedule: Q01DX001 (ip), vehicle: saline 105 % of control | dose: 20.0 mg/kg/injection, schedule: Q01DX001 (ip), vehicle: saline 103 % of control | dose: 40.0 mg/kg/injection, schedule: Q01DX001 (ip), vehicle: saline 103 % of control

O=C1Cc2ccccc2C(C(=O)O)O1 (centres undefined)
inactive: dose: 75.0 mg/kg/injection, schedule: Q01DX001 (ip), vehicle: saline 107 % of control | dose: 150.0 mg/kg/injection, schedule: Q01DX001 (ip), vehicle: saline 101 % of control | dose: 300.0 mg/kg/injection, schedule: Q01DX001 (ip), vehicle: saline 107 % of control

CC(=O)C[n+]1ccccc1
inactive: [9] 106 % of control and 97 % of control | dose: 100.0 mg/kg/injection, schedule: Q01DX009 (ip), vehicle: acetone 96 % of control | [12] 100 % of control and 95 % of control | dose: 200.0 mg/kg/injection, schedule: Q01DX009 (ip), vehicle: acetone 105 % of control | dose: 400.0 mg/kg/injection, schedule: Q01DX001 (ip), vehicle: saline 89 % of control and 97 % of control | dose: 400.0 mg/kg/injection, schedule: Q01DX009 (ip), vehicle: acetone 89 % of control

CC(C)OP(=O)(CCCCCCCCCCP(=O)(OC(C)C)OC(C)C)OC(C)C
inactive: dose: 100.0 mg/kg/injection, schedule: Q04DX002 (ip), vehicle: saline 113 % of control | dose: 200.0 mg/kg/injection, schedule: Q04DX002 (ip), vehicle: saline 102 % of control | dose: 400.0 mg/kg/injection, schedule: Q04DX002 (ip), vehicle: saline 98 % of control

COC(=O)C(CSCSC)NC(=O)/C=C/c1cc(OC)ccc1OC (centres undefined)
inactive: [1] 87 % of control | [4] 94 % of control | [2] 93 % of control | [5] 88 % of control | [3] 93 % of control | [6] 94 % of control

CC(C)C/C=C/C(=O)CC(=O)OC(C)C
inactive: dose: 75.0 mg/kg/injection, schedule: Q01DX001 (ip), vehicle: other 97 % of control | dose: 150.0 mg/kg/injection, schedule: Q01DX001 (ip), vehicle: other 101 % of control | dose: 300.0 mg/kg/injection, schedule: Q01DX001 (ip), vehicle: other 117 % of control

CC(=O)Nc1ccc([I+]c2ccc([N+](=O)[O-])cc2)cc1
inactive: dose: 6.25 mg/kg/injection, schedule: Q01DX009 (ip), vehicle: Klucel (hydroxypropylcellulose) (HPC) 90 % of control | dose: 12.5 mg/kg/injection, schedule: Q01DX009 (ip), vehicle: Klucel (hydroxypropylcellulose) (HPC) 98 % of control | dose: 25.0 mg/kg/injection, schedule: Q01DX009 (ip), vehicle: Klucel (hydroxypropylcellulose) (HPC) 104 % of control | dose: 50.0 mg/kg/injection, schedule: Q01DX009 (ip), vehicle: Klucel (hydroxypropylcellulose) (HPC) 106 % of control | [13] 101 % of control | [2] 109 % of control

CC(C)NC(=O)/C=C/C(=O)O
inactive: [7] 92 % of control | [8] 95 % of control | dose: 400.0 mg/kg/injection, schedule: Q01DX009 (ip), vehicle: saline 92 % of control

Oc1ccccc1-c1nc2ccccc2o1
inactive: dose: 50.0 mg/kg/injection, schedule: Q04DX002 (ip), vehicle: saline with Tween-80 98 % of control | [10] 95 % of control | [11] 92 % of control

CCOP(=S)(NN=C1CCCC1)OCC
inactive: [9] 95 % of control | [12] 95 % of control

CC(C)(C)NS(=O)(=O)CCl
inactive: dose: 100.0 mg/kg/injection, schedule: Q04DX002 (ip), vehicle: Klucel (hydroxypropylcellulose) (HPC) 111 % of control | dose: 200.0 mg/kg/injection, schedule: Q04DX002 (ip), vehicle: Klucel (hydroxypropylcellulose) (HPC) 104 % of control | dose: 400.0 mg/kg/injection, schedule: Q04DX002 (ip), vehicle: Klucel (hydroxypropylcellulose) (HPC) 93 % of control

CCOc1ccc(O)cc1
inactive: dose: 100.0 mg/kg/injection, schedule: Q04DX002 (ip), vehicle: saline + alcohol 109 % of control | dose: 200.0 mg/kg/injection, schedule: Q04DX002 (ip), vehicle: saline + alcohol 100 % of control

Cc1nn(C)c2ccc([N+](=O)[O-])cc12
inactive: [13] 91 % of control | dose: 200.0 mg/kg/injection, schedule: Q01DX009 (ip), vehicle: Klucel (hydroxypropylcellulose) (HPC) 102 % of control | dose: 200.0 mg/kg/injection, schedule: Q04DX003 (ip), vehicle: Klucel (hydroxypropylcellulose) (HPC) 97 % of control | dose: 400.0 mg/kg/injection, schedule: Q01DX009 (ip), vehicle: Klucel (hydroxypropylcellulose) (HPC) 96 % of control | dose: 400.0 mg/kg/injection, schedule: Q04DX003 (ip), vehicle: Klucel (hydroxypropylcellulose) (HPC) 98 % of control

Cc1cc(Cl)c(=O)n(-c2ccc(Cl)cc2)n1
inactive: dose: 50.0 mg/kg/injection, schedule: Q04DX003 (ip), vehicle: saline with Tween-80 109 % of control | [4] 103 % of control | [5] 98 % of control
